Values of other authors, collected in PMC1976805, “Preclinical pharmacokinetics of benznidazole” (British Journal of Cancer, 1984).
Like-named read-outs stand apart in the source and are kept apart here.

Experiments:
[1] = humans; ref Workman, 1980b and 1983; cited from earlier work
[2] = mice; ref Workman, 1980b and 1983; cited from earlier work
[3] = large crossbred dogs; ref Workman, 1980b and 1983; cited from earlier work
[4] = sheep; ref Miller, personal communication; cited from earlier work
[5] = EMT6 flank tumours; ref Workman, 1980b and 1983; cited from earlier work
[6] = mice; ref Workman, 1980b and 1983; cited from earlier work; remark: listed apart in the source
[7] = spontaneous dog neoplasms; ref Workman, 1980b and 1983; cited from earlier work
[8] = ref Workman, 1980b and 1983, cited from earlier work
plasma proteins = details: ref Workman, 1980b and 1983; cited from earlier work

COCC(O)Cn1ccnc1[N+](=O)[O-] (centres unmarked) [MISO, 1-(2-nitro-imidazol-1-yl)-3-methoxypropan-2-ol]
usual average t1/2 [1]: 10 to 12 h
elimination t1/2 [2]: 0.333 to 0.667 h
elimination t1/2 [3]: 4 to 5 h
elimination t1/2 [4]: 0.667 to 1 h
overall tissue/whole plasma ratio [5]: 87%
steady-state tumour/whole plasma ratio (about) [5]: about 90%
brain/whole plasma ratio [6]: 90%
tissue/whole plasma ratio [7]: 61%
peripheral nerve/whole plasma ratio ([8]; dog): 82%
brain/whole plasma ratio ([8]; dogs): 70%
appreciable plasma protein binding (plasma proteins): does not occur
